{"source": "patent US8293488B2", "about": "“Method for screening neurogenic agents” (Neuralstem, Inc., priority 2002, dated 2012)", "molecules": {"B1": {"name": "glia-derived neurotrophic factor (protein, UniProt P39905 78-211, looked up)", "Glial cell line-derived …": "SPDKQMAVLPRRERNRQAAAANPENSRGKGRRGQRGKNRGCVLTAIHLNVTDLGLGYETKEELIFRYCSGSCDAAETTYDKILKNLSRNRRLVSDKVGQACCRPIAFDDDLSFLDDNLVYHILRKHSAKRCGCI"}, "B2": {"name": "brain-derived neurotrophic factor (protein, UniProt P23560 19-247, looked up)", "Neurotrophic factor BDNF …": "APMKEANIRGQGGLAYPGVRTHGTLESVNGPKAGSRGLTSLADTFEHVIEELLDEDQKVRPNEENNKDADLYTSRVMLSSQVPLEPPLLFLLEEYKNYLDAANMSMRVRRHSDPARRGELSVCDSISEWVTAADKKTAVDMSGGTVTVLEKVPVSKGQLKQYFYETKCNPMGYTKEGCRGIDKRHWNSQCRTTQSYVRALTMDSKKRIGWRFIRIDTSCVCTLTIKRGR"}, "B3": {"name": "neurotrophic factor-3 (protein, UniProt P20783 139-257, looked up)", "Neurotrophin-3": "YAEHKSHRGEYSVCDSESLWVTDKSSAIDIRGHQVTVLGEIKTGNSPVKQYFYETRCKEARPVKNGCRGIDDKHWNSQCKTSQTYVRALTSENNKLVGWRWIRIDTSCVCALSRKIGRT"}}, "assay_type_in_all_cases": "cell-based", "key": {"[1]": {"system": "differentiating human hippocampal progenitor cells", "experiment": "In vitro neurotoxicity from dose-response curves", "details": "dose-response up to 100 microM", "from_the_text": "(§1) Linearity of dose-response and in vitro neurotoxicity are used to further filter down desired compounds from the primary screen. The dose-response curve measures neurogenesis over a concentration range of 100 picaM to 100 microM. The rationale for this is to eliminate early on those compounds with pronounced toxicity and those without a dose-dependent effect on neurogenesis. […] Table II contains the summary of EC50 of each compound tested."}, "[2]": {"system": "differentiating human hippocampal progenitor cells", "experiment": "Dose-response of neuron number (TuJ1 positive cells, automated cell counter)", "details": "7 days, 100 picaM to 100 microM", "experimental": "FIG. 6. Examples of neurogenesis profile of compounds selected from primary screening. After 7 days of compound treatment, the cells were stained with TuJ1 for neurons. The absolute number of TuJ1+ neurons per area was quantified and expressed as a relative value to the vehicle treated control.\nFIG. 7. Dose-dependent increase in neuron number. Differentiating human hippocampal progenitor cells were treated for 7 days with varying concentrations of “primary hits”. Subsequently, the cells were fixed, stained with TuJ1, and positive cells were quantified by an automated cell counter. Shown are the number of neurons after each treatment normalized against the vehicle control (0 microM=1.0).\nas §1"}, "[3]": {"system": "human hippocampal multipotent stem/progenitor cells", "experiment": "Proliferation by Alamar Blue staining of live cells after 7 days of compound treatment", "details": "7 days compound treatment, relative to vehicle control", "experimental": "FIG. 4. Examples of proliferation profile of compounds selected from primary screening. Proliferation was measured after compound treatment for 7 days by Alamar Blue staining of live cells per well. Shown are relative values over the vehicle control.\n(§2) (1) Undifferentiated human neural stem/progenitor cells were harvested by enzyme treatment.\n(§3) (2) The collected cells were seeded at 40,000 cells per well of 96-well plates pre-coated with extracellular matrix proteins (e.g., Biocoat PDL, Fisher). The seeding media is a standard serum-free, growth factor-free, basal media that supports healthy neuronal/glial survival, such as N2 without phenol red.\n(§4) (3) Test agents at appropriate concentrations were added to each well on Day 0.\n(4) The assay plates were incubated for 7 days, with 50% media change at every other day. On Day 2, 4, and 6 of post-plating, additional increment of the screening agents at appropriate concentrations were added to each well. […]\n(6) The fluorescence of the oxidized dye in each well was read by a fluorescent plate reader with the following settings:\nExcitation 530 nm, emission 590 nm, cutoff 570 nm The fluorescence level is proportional to the number of respiring cells in the culture and is a measure of a proliferative activity of a test agent (FIG. 2)."}, "[4]": {"system": "human hippocampal progenitor cells", "experiment": "In vitro neurogenesis assay (primary screen, positive control selection)", "details": "for effective in the neurogenesis assay: growth factors 20 ng/ml, 7 days", "experimental": "FIG. 3A. Influence of known growth factors on proliferation and neurogenesis relative to control. Hippocampal progenitor cells were treated for seven days with differentiation media (without mitogen) in the presence or absence of 20 ng/ml of growth factor dosed every other day. Plates were treated with Alamar Blue as described in Methods, then fixed and stained with antibody (TuJ1) against type III beta-tubulin (neuronal marker). The 96-well plate was read in a fluorescent plate reader. Bars represent the Mean+SD from 4 wells per treatment.\nas §2, §3, §4\n(4) The assay plates were incubated for 7 days, with 50% media change at every other day. On Day 2, 4, and 6 of post-plating, additional increment of the screening agents at appropriate concentrations were added to each well.\n(7) After the alamar blue assay, the cells were fixed and stained with antibodies against neuron-specific antigens according to standard procedures. Typical antigens effective were Type III-beta tubulin and MAP2c.\n(§5) (9) As a preliminary detection of positive activities, the overall immunostaining intensity in each well was read by a fluorescence plate reader. For the positive hits, more quantitative analysis was carried out by automated morphometric counting of individual cells.\nThus, the assay can discriminate test agents for selectively having a neurogenic activity. The positive control utilized is leukemia inhibitory factor (LIF), a cytokine growth factor, at 20 ng/ml. The selection of LIF as the positive control is based on its properties to increase by 2-3 fold the number of neurons and glia. This effect validates both the neural stem cell system, in which, should a compound be effective in neurogenesis, the cells respond appropriately by enhanced differentiation and/or mitosis, and the assay method in which such cellular responses can be measured reproducibly and quantifiably.\n5,628 synthetic compounds of the type Fused Imidazoles, Aminopyrimidines, Nicotinamides, Aminomethyl Phenoxypiperidines and Aryloxypiperidines are evaluated for their effect on neurogenesis according the assay method described above. […] Those were re-analyzed by quantitative neuron counting. […] The significance level was empirically set at an activity above 30% change over the vehicle control for proliferation and above 10% change for neurogenesis."}, "[5]": {"system": "human hippocampal multipotent stem/progenitor cells", "experiment": "Neurogenesis: ratio of TuJ1 stained neurons to total nuclei after 7 days", "details": "20 ng/ml, differentiation media without mitogen, manual cell counting, controls 48.5+6.3%", "experimental": "FIG. 3B. LIF effects on hippocampal cell proliferation and neurogenesis by manual cell counting. Hippocampal progenitor cells were treated for seven days with differentiation media (without mitogen) in the presence or absence of 20 ng/ml LIF. Three fields were analyzed per well for total number of cells (DAPI positive nuclei) and for total number of neurons (TUJI positive cells). Bars represent the Mean+SD from 4 wells per treatment. The percentage of neurons calculated for each treatment are as follows: 48.5+6.3% for controls and 53.6+1.15 for LIF. The non-TUJ1 positive cells are mainly astrocytic (GFAP+).\nFIG. 5. Example of neurogenesis profile of compounds selected from primary screening. After 7 days of compound treatment, the ratio of neuron number (TuJ1 stained) to the total nuclei number (Hoechst stained) was determined. Shown are the relative ratio of neuron:total cells for each compound over the vehicle control in percentage. […]\n(8) The total cell number in each well was quantified by staining the cultures with a nuclear dye such as DAPI or Hoechst according to standard procedures.\nas §5"}}, "data": [{"molecule": "CCCCNc1c(C2CCN(C(=O)CN(CC(C)C)S(C)(=O)=O)CC2)nc2cnccn12", "note": "[NSI-106]", "values": [{"measurement": "Other Characterization of Toxicity", "setting": "[1]", "result": "No Toxicity"}, {"measurement": "EC50", "setting": "[2]", "result": 0.1, "unit": "nM"}, {"measurement": "Proliferation (% of Control)", "setting": "[3]", "result": "211 ± 48 % of Control"}]}, {"molecule": "NC(=O)c1cnc(NCc2ccc(Cl)cc2)nc1NCC1CCCCC1", "note": "[NSI-144]", "values": [{"measurement": "Other Characterization of Toxicity", "setting": "[1]", "result": "No Toxicity"}, {"measurement": "EC50", "setting": "[2]", "result": 1, "unit": "nM"}, {"measurement": "Proliferation (% of Control)", "setting": "[3]", "result": "149 ± 15 % of Control"}]}, {"molecule": "COc1ccc(C2CNC(=O)C2)cc1OC1CCCC1", "note": "(stereo not shown) [Rolipram, rolipram, reference compound]", "values": [{"measurement": "effective in the neurogenesis assay", "setting": "[4]", "result": "effective"}]}, {"molecule": "leukemia inhibitory factor [LIF]", "values": [{"measurement": "percentage of neurons (TUJ1 positive cells of DAPI positive nuclei)", "setting": "[5]", "result": "53.6+1.15"}, {"measurement": "increase in the number of neurons and glia", "setting": "[4]; 20 ng/ml", "result": "2-3 fold"}, {"measurement": "effective in the neurogenesis assay", "setting": "[4]", "result": "effective"}]}, {"molecule": "B1", "values": [{"measurement": "effective in the neurogenesis assay", "setting": "[4]", "result": "Only one (leukemia inhibitory factor) was effective"}]}, {"molecule": "B2", "values": [{"measurement": "effective in the neurogenesis assay", "setting": "[4]", "result": "Only one (leukemia inhibitory factor) was effective"}]}, {"molecule": "B3", "values": [{"measurement": "effective in the neurogenesis assay", "setting": "[4]", "result": "Only one (leukemia inhibitory factor) was effective"}]}]}
